Data from patent publication US20060073189A1, “Chewing gums, lozenges, candies, tablets, liquids, and sprays for efficient delivery of medications and dietary supplements” (priority 2000, published 2006).

Assay: pKa and ionisation of active ingredients
Type: physicochemical
Conditions: at a pH of 8.3

With `CN(C)CCOC(c1ccccc1)c1ccccc1` [diphenhydramine] the ionized was 50%.
